In brackets after ≈: the same amount, converted by molar mass. Where two headings read alike, the source gives them in different places.
Legend:
[1] = test system: Pseudomonas aeruginosa MTCC 741; experiment: In vitro antibacterial activity (CLSI M07-A10 dilution MIC); assay type: cell-based; conditions: MTCC741
Excerpt: (§1) Staphylococcus epidermidis, Bacillus subtilis, Enterococcus faecium, Enterococcus faecium resistant to VRE, and Gram-negative organisms including Klebsiella pneumonia, Escherichia coli, and Pseudomonas aeruginosa.

[2] = test system: Bacillus subtilis MTCC 441; experiment: as above; assay type: cell-based; conditions: MTCC441
Excerpt: as §1

[3] = test system: Staphylococcus epidermidis; experiment: as above; assay type: cell-based
Excerpt: as §1

[4] = test system: Enterococcus faecium ATCC 51559 (VRE resistant); experiment: as above; assay type: cell-based
Excerpt: as §1

[5] = test system: Staphylococcus aureus ATCC 29213; experiment: as above; assay type: cell-based; conditions: ATCC29213
Excerpt: as §1

[6] = test system: Klebsiella pneumonia MTCC 618; experiment: as above; assay type: cell-based; conditions: Klebsiella pneumoniae, MTCC618
Excerpt: as §1

[7] = test system: Staphylococcus aureus ATCC BAA-1556 (MERSA resistant); experiment: as above; assay type: cell-based; conditions: ATCCBAA1556
Excerpt: as §1

[8] = test system: Enterococcus faecium ATCC 35667; experiment: as above; assay type: cell-based; conditions: ATCC35667
Excerpt: as §1

[9] = test system: Escherichia coli MTCC 443; experiment: as above; assay type: cell-based
Excerpt: as §1

[10] = test system: Mycobacterium tuberculosis H37Rv strain; experiment: Anti-tubercular alamar blue microplate MIC; assay type: cell-based; conditions: 168 h, M. tuberculosis H37Rv, seven days incubation, read-out: anti-mycobacterial activity (MIC)
DNA gyrase from E. coli = biological target: T1, DNA gyrase from E. coli (Escherichia coli, UniProt P0AES4+P0AES6); experiment: Inhibitory activity on E. coli DNA gyrase (Inspiralis assay); assay type: biochemical
T1 construct: purchased Inspiralis
T1 sequence (P0AES4 whole entry, one chain of several): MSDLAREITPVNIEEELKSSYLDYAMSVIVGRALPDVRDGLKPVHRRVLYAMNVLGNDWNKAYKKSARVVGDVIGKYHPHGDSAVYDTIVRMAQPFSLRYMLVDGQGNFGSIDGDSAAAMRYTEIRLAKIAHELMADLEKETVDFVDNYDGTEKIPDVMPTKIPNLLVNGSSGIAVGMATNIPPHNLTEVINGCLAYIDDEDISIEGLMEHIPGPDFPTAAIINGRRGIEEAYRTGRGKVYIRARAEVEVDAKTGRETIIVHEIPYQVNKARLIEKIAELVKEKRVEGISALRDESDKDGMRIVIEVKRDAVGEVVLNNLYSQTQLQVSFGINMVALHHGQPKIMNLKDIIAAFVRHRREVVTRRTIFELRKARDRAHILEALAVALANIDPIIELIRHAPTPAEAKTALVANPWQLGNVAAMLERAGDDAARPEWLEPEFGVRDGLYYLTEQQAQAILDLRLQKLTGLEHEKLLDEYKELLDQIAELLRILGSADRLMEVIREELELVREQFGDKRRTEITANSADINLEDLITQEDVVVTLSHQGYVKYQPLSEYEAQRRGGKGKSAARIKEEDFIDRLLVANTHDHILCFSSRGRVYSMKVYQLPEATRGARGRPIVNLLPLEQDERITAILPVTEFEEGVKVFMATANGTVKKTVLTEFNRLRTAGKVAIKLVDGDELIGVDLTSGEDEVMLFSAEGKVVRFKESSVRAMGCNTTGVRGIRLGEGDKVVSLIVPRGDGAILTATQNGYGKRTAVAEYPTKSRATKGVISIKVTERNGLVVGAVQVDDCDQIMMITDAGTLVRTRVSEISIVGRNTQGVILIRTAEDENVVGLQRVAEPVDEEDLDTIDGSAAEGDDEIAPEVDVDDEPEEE
Description: Inhibitory potencies were investigated utilizing the Inspiralis assay on streptavidin-coated 96-well microtiter plates. First, the plates were rehydrated with buffer (20 mM Tris-HCl with pH 7.6, 0.01% w/v BSA, 0.05% v/v Tween 20, 137 mM NaCl) and the biotinylated oligonucleotide was then immobilized. After washing off the unbound oligonucleotide, the enzyme test was performed. […] Reaction solutions were incubated at 37° C. for 30 min. After that, the TF buffer (50 mM NaOAc with pH 5.0, 50 mM NaCl and 50 mM MgCl2) was added to terminate the enzymatic reaction. After additional incubation for 30 min at rt, during which biotinoligonucleotide-plasmid triplex was formed, the unbound plasmid was washed off using TF buffer and SybrGOLD in T10 buffer (10 mM Tris HCl with pH 8.0 and 1 mM EDTA) was added. […] Initial screening was done at 100 or 10 μM concentration of inhibitors. […] GraphPad Prism software was used to calculate the IC50 values. The result is given as the average value of three independent measurements.

[11] = Escherichia coli MTCC 443 + efflux pump inhibitor PAβN (200 μg/mL)

## CN[C@H](CC(C)C)C(=O)N[C@H]1C(=O)N[C@@H](CC(N)=O)C(=O)N[C@H]2C(=O)N[C@H]3C(=O)N[C@H](C(=O)N[C@H](C(=O)O)c4cc(O)cc(O)c4-c4cc3ccc4O)[C@H](O)c3ccc(c(Cl)c3)Oc3cc2cc(c3O[C@@H]2O[C@H](CO)[C@@H](O)[C@H](O)[C@H]2O[C@H]2C[C@](C)(N)[C@H](O)[C@H](C)O2)Oc2ccc(cc2Cl)[C@H]1O [Vancomycin, reference compound]
[1]; Pseudomonas aeruginosa
  MIC: > 128 µg/mL
[2]; Bacillus subtilis
  MIC: 0.5 µg/mL (≈ 0.345 µM)
[3]
  MIC: 1 µg/mL (≈ 0.69 µM)
[4]; Enterococcus faecium
  MIC: > 128 µg/mL
[5]; Staphylococcus aureus
  MIC: 1 µg/mL (≈ 0.69 µM)
[6]
  MIC: > 128 µg/mL
[7]; Staphylococcus aureus
  MIC: 1 µg/mL (≈ 0.69 µM)
[8]; Enterococcus faecium
  MIC: 0.5 µg/mL (≈ 0.345 µM)
[9]; [11]
  MIC: >128 µg/mL
[9]; Escherichia coli, MTCC443
  MIC: > 128 µg/mL

## CCCCCN(C)Cc1cc(C(=O)O)ccc1-n1ccc2c([nH]c3c(NC)cc(F)cc32)c1=O [Compound 6, 4-(6-fluoro-8-(methylamino)-1-oxo-1,9-dihydro-2H-pyrido[3,4-b]indol-2-yl)-3-((methyl(pentyl)amino)methyl)benzoic acid]
[1]; Pseudomonas aeruginosa MTCC 741, read-out: MIC
  MIC: 0.75 µg/mL (≈ 1.61 µM)
[2]; Bacillus subtilis MTCC 441, read-out: MIC
  MIC: 0.5 µg/mL (≈ 1.08 µM)
[3]; read-out: MIC
  MIC: 0.75 µg/mL (≈ 1.61 µM)
[4]; Enterococcus faecium ATCC 51559 (VRE resistant), read-out: MIC
  MIC: 0.5 µg/mL (≈ 1.08 µM)
[5]; Staphylococcus aureus ATCC 29213, read-out: MIC
  MIC: 0.75 µg/mL (≈ 1.61 µM)
[6]; Klebsiella pneumonia MTCC 618, read-out: MIC
  MIC: 1 µg/mL (≈ 2.15 µM)
[7]; Staphylococcus aureus ATCC BAA-1556 (MERSA resistant), read-out: MIC
  MIC: 0.75 µg/mL (≈ 1.61 µM)
[8]; Enterococcus faecium ATCC 35667, read-out: MIC
  MIC: 0.5 µg/mL (≈ 1.08 µM)
[9]; [11]
  MIC: 0.5 µg/mL
[9]; MTCC443, Escherichia coli MTCC 443, read-out: MIC
  MIC: 8 µg/mL (≈ 17.2 µM)
[10]
  MIC: 8 µg/mL (≈ 17.2 µM)
DNA gyrase from E. coli
  IC50: 18 nM

Source: patent US11773092B1, “Pyrido[3,4-b]indol-1-one compounds as antibacterial agents” (KING FAISAL UNIVERSITY, priority 2023, dated 2023)
